Source: a melting point compilation (Tetko et al.; mined from patent text by program, amines drawn as free bases though some values may be those of a salt)

First: CC(O)(CC(=O)O)c1ccc(-c2ccc(Br)cc2Br)cc1 (stereo not drawn)
Second: COc1ccccc1-c1ccc(C(=O)O)cc1
The melting point of the first is lower: 118 to 120 °C for the first, 250 to 253 °C for the second.

`CC(=O)Oc1ccc2c(c1)Sc1cc(N(C)C)ccc1N2C(C)=O` and `CN(CCO)Cc1cc(C(=O)c2ccc(Cl)cc2)cc(C(C)(C)C)c1O` cannot be ordered by melting point: 124 to 128 °C for the first, 126 to 127 °C for the second.

Compared with `O=C(CCc1ccccc1Cl)Nc1c(Cl)ccc2nc(N3CC[C@H](NCCO)C3)ccc12`, `COc1nn(Cc2ccc(OCc3nc(-c4ccccc4)oc3C)cc2)cc1CCC(=O)O` is lower in melting point: 180 to 182 °C for the first, 127 to 128 °C for the second.

First: O=C(O)c1cccc2c1C(=O)c1ccccc1S2(=O)=O
Second: Cc1ccccc1Oc1cc(Cl)ccc1C(=O)O
The melting point of the first is higher: 269 to 271 °C for the first, 158 to 159 °C for the second.

Compared with `Nc1cccc(-c2ccc(CCN3CCN(C(=O)NC4CCCCC4)CC3)cc2)n1`, `Cc1ccnc(N2CCN(CCC3Cn4c(-c5ccc(O)cc5)c(C)c5cccc(c54)O3)CC2)c1` (stereo not drawn) is higher in melting point: 180 to 182 °C for the first, 213 to 214 °C for the second.

First: CNc1c(NCCSCc2csc(CN(C)C)n2)c(=O)c1=O
Second: CCc1nn(-c2ccc3cc(N=CN(C)C)c(=O)oc3c2)nc1C
The melting point of the first is higher: 163 to 167 °C for the first, 158 to 159 °C for the second.

Compared with `CC(C)(O)Cn1cnc2cnc3ccccc3c21`, `Cc1nnc2n1-c1ccccc1CS2` is lower in melting point: 169 to 170 °C for the first, 142 to 144 °C for the second.

Compared with `CC1(C)C(=O)Nc2cc3[nH]c(-c4cnsn4)nc3cc21`, `CCn1ncc2c1ncc1c(N)nc3cc(C)nn3c12` is lower in melting point: over 300 °C for the first, 248 to 250 °C for the second.

First: Cc1c(O)c(=O)ccn1CCCCO
Second: CCCCCc1ccc(C(=O)Oc2ccc(C#N)c(F)c2F)cc1
The melting point of the first is higher: 126 to 128 °C for the first, 33 °C for the second.

First: CC1CCC(C(C)C)C(OC(=O)N2CC3CC(C2)CN(C(=O)C2(O)NCCC2Oc2ccc(C#N)cc2)C3)C1 (single isomer, unassigned; (-))
Second: CC(=Nc1ccc2c(c1)C(=O)c1ccc(N=C(C)N3CCC(C)CC3)cc1C2=O)N1CCC(C)CC1
The melting point of the first is lower: 111 to 112 °C for the first, 200 to 202 °C for the second.

First: COCCN1CCC(c2nc3cc(-c4ccc(-n5cnnn5)cc4F)ccc3o2)CC1
Second: N#Cc1ccc(OCCN2CCN(c3cc(Cl)nnc3Cl)CC2)cc1
The melting point of the first is lower: 148 to 152 °C for the first, 175 to 177 °C for the second.

Compared with `Cn1c(Sc2cc(C(F)(F)F)ccc2C#N)n[nH]c1=O`, `CC1(C)OC(C=Cc2ccc(C(F)(F)F)cc2)=CC1=O` is lower in melting point: 182 °C for the first, 94 to 95 °C for the second.

Compared with `COc1cccc(-c2ccc(C(=O)N(Cc3cccc(O)c3)C3CC3)s2)c1F`, `CCc1cc(C[C@H](NC(=O)c2c(Cl)cccc2Cl)C(=O)O)ccc1-c1ccccc1OC` is lower in melting point: 150 °C for the first, 105 to 107 °C for the second.

First: O=c1c2ccccc2[nH]c2c(OCCCCN(CCO)CCO)cccc12
Second: CCOC(=O)Nc1[nH]c2ccc(Sc3ccccc3)cc2c1C#N
The melting point of the first is lower: 124 to 126 °C for the first, 181 to 182 °C for the second.

Compared with `Cc1cccc(COCC2OC(n3cc(C(F)(F)F)c(=O)[nH]c3=O)CC2O)c1` (stereo not drawn), `Cn1c(C(F)(F)F)ccc(-c2cc3[nH]c(=O)oc3cc2Cl)c1=O` is higher in melting point: 169 to 171 °C for the first, 263 to 265 °C for the second.

Compared with `O=C(Nc1c(C(O)(C(F)(F)F)C(F)(F)F)ccc2ccccc12)c1ccc(Cl)cc1`, `Cc1c(Cc2cccc(C(F)(F)F)c2)sc2c(-c3cccc(C(=O)O)c3)cccc12` is lower in melting point: 175 to 176 °C for the first, 172 to 173 °C for the second.

First: COc1ccc(NC(=O)/C=C/c2ccc(C(C)(C)C)cc2)cc1OC
Second: COC(=O)N1c2cc(OC)c(OC)cc2C(=O)CC1C (stereo not drawn)
The melting point of the first is lower: 115 to 116 °C for the first, 156 to 158 °C for the second.

First: COC(=O)C1(NC(=O)Cc2cc(-c3ccc(Cl)cc3)ccc2C)CCCC(C(F)(F)F)C1 (stereo not drawn)
Second: O=C(NCc1ccccc1)C1=C(C(=O)Nc2ccc(Cl)cc2F)CCCC1
The melting point of the first is higher: 149 °C for the first, 121 to 123 °C for the second.

Compared with `COC[C@H]1CN(c2ccc([C@H]3CC[C@H](C#N)CC3)cc2)C(=O)O1`, `O=C(Nc1ccc(N2CCOCC2=O)cc1)[C@H]1C=CCN1C(=O)Nc1ccc(Cl)cc1` is higher in melting point: 174 °C for the first, 245 °C for the second.

First: O=C(O)CCC/C=C/c1ccc(-c2ccccc2)cc1
Second: CC(C)c1cccc(C(C)C)c1NC(=O)NCC1(c2ccc(-c3ccccc3)cc2)CCC1
The melting point of the first is lower: 107 to 109 °C for the first, 177 to 179 °C for the second.

Compared with `CC(C)(C)NC(=O)[C@@H]1C[C@H](Cl)CN1C(=O)[C@@H](O)[C@H](Cc1ccccc1)NC(=O)[C@H](CCS(N)(=O)=O)NC(=O)OCc1ccccc1`, `CC(C)(C)OC(=O)N[C@@H](Cc1ccccc1)C(=O)NCCC(=O)OCc1ccccc1` is lower in melting point: 115 to 122 °C for the first, 93 to 96 °C for the second.

First: CCOC(=O)C(C)(C(=O)OCC)C1CCCC(=O)C1 (stereo not drawn)
Second: CCOC(=O)C(=Cc1cccc(O)c1)C(=O)OCC
The melting point of the first is higher: 129 to 130 °C for the first, 72 to 74 °C for the second.

Compared with `COc1ccc(C=Cc2nnc(CCl)o2)cc1`, `COc1ccc2oc(Cc3cccc(Cl)c3)c(CC#N)c2c1` is lower in melting point: 139 to 141 °C for the first, 82 °C for the second.

Compared with `CCOC(=O)C1=NCC(C)(C)c2cc(OC)c3c(c21)CC(C)(C)O3`, `CCOC(=O)c1ccccc1-n1cnc2c(C)c(C(=O)OCC)c(C)cc2c1=O` is lower in melting point: 117 to 121 °C for the first, 116 to 117 °C for the second.

First: NS(=O)(=O)c1cnc(-c2cn(-c3nc(-c4ccc(C(F)(F)F)cc4)cc(C(F)(F)F)n3)cn2)s1
Second: CSc1ccc(-c2cnc3ccc(-c4nnc(C)o4)cn23)cc1
The melting point of the first is higher: 264 °C for the first, 180 to 181 °C for the second.

Compared with `CCOc1ccc(NCc2ccc(N(C)C)cc2)cc1`, `CCOc1cc2ncc(Nc3cccc(F)c3)nc2cc1OCC` is higher in melting point: 98 to 99 °C for the first, 193 °C for the second.

First: Cc1c(O)cccc1C(=O)NC(Cc1ccccc1)C(O)C(=O)N1CSC(C)(C)C1C(=O)NC1CCCc2ccccc21 (stereo not drawn)
Second: O=C(NCc1ccccc1)c1ccnc(NC(=O)c2ccccc2)c1
The melting point of the first is lower: 125 to 126 °C for the first, 174 to 176 °C for the second.

Compared with `COc1ccc2nc(NC(=O)c3nnn(Cc4ccc(Cl)c(Cl)c4)c3C)sc2c1`, `NC(=O)c1nnn(Cc2cc(Cl)c(C(=O)c3ccc(Cl)cc3)c(Cl)c2)c1N` is lower in melting point: 225 °C for the first, 198 to 200 °C for the second.

Compared with `COc1cc(C(=O)Nc2cc(C(=O)c3ccccc3)ccc2N2CCOCC2)cc(OC)c1OC`, `COc1ccc(C(=O)c2ccc(OCc3nc(-c4ccccc4)oc3C)nc2)c(OC(C)C(=O)O)c1` (stereo not drawn) is lower in melting point: 171 to 172 °C for the first, 162 to 163 °C for the second.

Compared with `Nc1nc(N)c(C(=O)NC2=NCCN2)nc1Cl`, `Cc1nc(C(=O)Nc2ccc3[nH]cc(C4CCN(C)CC4)c3n2)c(C)s1` is lower in melting point: 236 °C for the first, 125 to 126 °C for the second.

First: Clc1ccc(C2CC(n3cncn3)c3ccccc3N2)cc1 (stereo not drawn)
Second: O=c1c2ccc(Cl)cc2[nH]n2cccc12
The melting point of the first is lower: 150 to 152 °C for the first, over 300 °C for the second.

First: COc1cc(OC)nc(NC(=O)NS(=O)(=O)c2ccccc2C2CCOC2=O)n1 (stereo not drawn)
Second: Cc1cc(OC(F)F)cc(NC(=O)NS(=O)(=O)c2ccccc2Cl)n1
The melting point of the first is lower: 164 to 166 °C for the first, 169 to 170 °C for the second.

First: Oc1ccc(C2(c3ccccc3)OCCCC2c2ccccc2)cc1 (stereo not drawn)
Second: Cn1c2ccc(OCc3ccccc3)cc2c2c(CC(=O)N3CCCC3)nn(-c3ccccc3)c(=O)c21
The melting point of the first is lower: 194 to 196 °C for the first, 203 to 204 °C for the second.

Compared with `O=C1CCCCN1CCCC(=O)N1CCC(C2c3ncc(Br)cc3CCc3cc(Cl)cc(Br)c32)CC1` (single isomer, unassigned; (+)), `NC1CN(c2cc3c(cc2F)c(=O)c(C(=O)O)cn3C2CC2)C1` is higher in melting point: 101 to 102 °C for the first, 246 to 247 °C for the second.

Compared with `O=C1NCN(c2ccc(F)c(Cl)c2)C12CCN(C1CCC(c3ccc(F)cc3)(c3ccc(F)cc3)CC1)CC2`, `O=C1NCN(c2ccccc2)C12CCN(CCCn1c(=O)[nH]c3cc(Cl)c(Cl)cc31)CC2` is higher in melting point: 201 to 203 °C for the first, 275 °C for the second.

Compared with `COCCc1nc2c(N)nc3ccccc3c2n1CCCCCCCCNS(C)(=O)=O`, `COCCc1nc2c(N)nc3c(c2n1CCOCCNC(=O)c1ccccc1)CCCC3` is higher in melting point: 109 to 110 °C for the first, 141 to 143 °C for the second.

First: CC(=O)OC1CCC2(C)C(=CCC3C2CCC2(C)C(n4cnc5ccccc54)=CCC32)C1 (stereo not drawn)
Second: O=C1CC2CC(n3c(=O)[nH]c4ccccc43)CC2C1 (stereo not drawn)
The melting point of the first is lower: 159 to 160 °C for the first, 246 to 248 °C for the second.

Compared with `Cc1cc(OC(F)F)ccc1NC(=O)c1cccc(N)c1C(=O)NC(C)C`, `Cc1cccc(-c2ncc(NC(=O)OCc3ccccc3)c(=O)n2CC(=O)O)c1` is higher in melting point: 148 to 149 °C for the first, 183 to 185 °C for the second.

First: O=C1C=CC(=O)N1c1ccc(S(=O)(=O)C(I)I)cc1
Second: CON(C)S(=O)(=O)c1ccccc1[N+](=O)[O-]
The melting point of the first is higher: 217 °C for the first, 105 to 106 °C for the second.

First: CCOC(=O)COc1cc2ccsc2c(Cl)c1Cl
Second: CCOP(=O)(Cc1cc(C=O)ccc1O)OCC
The melting point of the first is higher: 92 to 93 °C for the first, 88 to 88.5 °C for the second.

First: CCCCc1ccc(C(=O)NCc2c[nH]c(=S)n2[C@H]2CCc3c(F)cc(F)cc3C2)cc1
Second: COCOCc1ccccc1C1Cn2cc(C(=O)NCc3ccc(Cl)cc3)c(=O)c3cc(CN4CCOCC4)cc(c32)O1 (stereo not drawn)
The melting point of the first is higher: 242 to 243 °C for the first, 202 to 204 °C for the second.

First: Oc1cccnc1Oc1cccc(Cl)c1
Second: COc1ccc2c(c1)CCc1nn(-c3ccccn3)c(O)c1-2
The melting point of the first is lower: 109 to 110 °C for the first, 139 to 140 °C for the second.

First: COn1c(C(F)(F)F)nc2ncc(Cl)cc21
Second: Nc1nc(-c2cc(Cl)ccc2Cl)nc(N2CC(O)C2)n1
The melting point of the first is lower: 91 to 92 °C for the first, 256 to 257 °C for the second.

First: CC(C)c1ccc(CCC(O)(P(=O)(O)O)P(=O)(O)O)cc1
Second: O=C(O)C1(C(F)F)c2ccccc2Oc2ccccc21
The melting point of the first is lower: 174 °C for the first, 181 to 182 °C for the second.

First: CC(C)(C)CC(=O)Nc1cc(NC(=O)C(C)(C)C)cc(NC(=O)C(C)(C)C)c1
Second: CC(C)(C)OC(=O)c1ncn2c1[C@@H]1CCCN1C(=O)c1c-2ccc(F)c1Cl
The melting point of the first is higher: 368 °C for the first, 211 to 212 °C for the second.

Compared with `FC(F)c1nc2ccccc2n1-c1nc(N2CCOCC2)nc(N2CCOCC2)n1`, `CCCNC(C)=NC(=Nc1ccccc1)N1CCOCC1` is lower in melting point: 211 to 214 °C for the first, 101 to 103 °C for the second.

Compared with `CCc1cc2c3c(ccc2[nH]1)OCC(CN1CC=C(c2c[nH]c4ccccc24)CC1)O3` (stereo not drawn), `N#CC1=C(C2=CCNCC2)Nc2n[nH]cc2C1c1cccc2nonc12` (stereo not drawn) is higher in melting point: 175 to 177 °C for the first, 180 °C for the second.

First: OCCNc1nc(Cl)nc2cccc(Br)c12
Second: Cc1nc2c(c(N)c1C(=O)O)c1ccccc1n2C
The melting point of the first is lower: 165 to 167 °C for the first, 230 to 232 °C for the second.

First: Cn1ncc2c1-c1c(Oc3ccccc3)sc(C(=O)O)c1CC2
Second: CC#CCOc1cc(OCC#CCC)ncn1
The melting point of the first is higher: 259 to 261 °C for the first, 67.4 °C for the second.
